Reference: patent publication US20110319392A1, “Thiazole Sulfonamide And Oxazole Sulfonamide Kinase Inhibitors” (priority 2009, published 2011)

Key:
[1] = test system: HT-29 tumor cells; test: Cell growth inhibition assay (CellTiter-Glo), HT-29; format: cell-based, Human; conditions: Homo sapiens
Summary of the method: (§1)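 Cells seeded at 500/well (HN5 and HT-29 in high-glucose DMEM/10% FBS; A375P F11s in RPMI/10% FBS with pyruvate; SK-MEL-3 in McCoy's 5A/15% FBS), then exposed next day to 1:3 serial compound dilutions (0.2% DMSO) for 3 days at 37° C. CellTiter-Glo luminescence measured ATP; IC50 derived by 4-parameter fit.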

[2] = test system: SK-MEL-3 tumor cells; test: Cell growth inhibition assay (CellTiter-Glo), SK-MEL-3; format: cell-based, Human; conditions: Homo sapiens, SK-MEL3
Summary of the method: as §1

[3] = target: T1, ErbB2 (Homo sapiens, UniProt P04626); test: ErbB-2 substrate phosphorylation assay (HTRF); format: biochemical
T1 construct: made in house; host or cells: baculovirus expression system
Summary of the method: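 Baculovirus-expressed EGFR (0.8 nM) or ErbB2 (10 nM) in enzyme mix, preincubated 1 h at 20 °C with compound (0.00027–47.6 μM final), then 90 min at 20 °C with substrate mix of 20 μM ATP, 0.8 uM biotinylated Peptide C, MnCl2, MOPS pH 7.5. Phosphotyrosine by HTRF; pIC50 reported.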

[4] = test system: BT474 tumor cells; test: Cell growth inhibition assay (CellTiter-Glo), BT474; format: cell-based, Human; conditions: Homo sapiens, BT-474, 72 h, 3 days incubation

T1 sequence (P04626 23-1255): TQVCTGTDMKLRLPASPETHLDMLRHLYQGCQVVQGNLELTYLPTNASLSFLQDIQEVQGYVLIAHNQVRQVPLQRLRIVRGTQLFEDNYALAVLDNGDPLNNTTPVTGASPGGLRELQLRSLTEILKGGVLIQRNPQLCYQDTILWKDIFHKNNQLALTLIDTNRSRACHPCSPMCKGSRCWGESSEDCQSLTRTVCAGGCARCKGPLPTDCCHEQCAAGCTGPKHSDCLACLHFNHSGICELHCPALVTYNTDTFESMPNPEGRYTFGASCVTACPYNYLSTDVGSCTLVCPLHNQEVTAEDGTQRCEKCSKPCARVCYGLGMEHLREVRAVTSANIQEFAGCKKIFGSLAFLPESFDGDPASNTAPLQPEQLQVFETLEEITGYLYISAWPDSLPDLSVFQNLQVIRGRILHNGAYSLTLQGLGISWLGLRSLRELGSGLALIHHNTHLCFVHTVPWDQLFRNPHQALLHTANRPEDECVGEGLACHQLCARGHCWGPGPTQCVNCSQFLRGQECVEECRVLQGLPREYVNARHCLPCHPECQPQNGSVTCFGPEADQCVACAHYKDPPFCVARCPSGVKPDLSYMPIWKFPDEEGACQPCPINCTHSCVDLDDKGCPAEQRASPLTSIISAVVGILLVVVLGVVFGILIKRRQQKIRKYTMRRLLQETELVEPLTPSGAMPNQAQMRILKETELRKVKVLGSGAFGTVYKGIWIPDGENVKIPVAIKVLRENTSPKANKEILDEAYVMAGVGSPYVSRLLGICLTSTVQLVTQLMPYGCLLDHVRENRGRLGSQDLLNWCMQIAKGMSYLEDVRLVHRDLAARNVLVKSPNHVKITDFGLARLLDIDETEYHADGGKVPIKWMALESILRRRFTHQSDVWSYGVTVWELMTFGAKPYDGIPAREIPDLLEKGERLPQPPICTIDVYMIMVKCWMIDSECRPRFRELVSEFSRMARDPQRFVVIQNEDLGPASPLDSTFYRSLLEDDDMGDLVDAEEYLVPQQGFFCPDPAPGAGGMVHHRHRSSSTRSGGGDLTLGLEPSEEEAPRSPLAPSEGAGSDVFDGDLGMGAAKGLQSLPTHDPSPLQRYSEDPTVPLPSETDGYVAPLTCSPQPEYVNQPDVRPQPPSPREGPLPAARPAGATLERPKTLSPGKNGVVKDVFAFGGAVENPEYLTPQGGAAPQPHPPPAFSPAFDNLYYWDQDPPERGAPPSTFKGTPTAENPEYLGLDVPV

Row | IC50 [1] [nM] | IC50 [2] [nM] | IC50 [3] [nM] | IC50 [4] [nM] | SMILES
1 | 100 to 1000 | < 100 | > 1000 | > 1000 | CC(C)c1nc(-c2ccnc(NS(=O)(=O)c3c(F)cccc3F)c2)c(-c2ccnc(Nc3cnc(N4CCOCC4)c(F)c3)n2)s1 [Example 33]
2 | < 100 | < 100 | 100 to 1000 | > 1000 | CC(C)c1nc(-c2ccc(F)c(NS(=O)(=O)c3c(F)cccc3F)c2)c(-c2ccnc(Nc3ccc(N4CCOCC4)nc3)n2)s1 [Example 23, 2,6-Difluoro-N-{2-fluoro-5-[2-(1-methylethyl)-5-(2-{[6-(4-morpholinyl)-3-pyridinyl]amino}-4-pyrimidinyl)-1,3-thiazol-4-yl]phenyl}benzenesulfonamide]
3 | < 100 | < 100 | 100 to 1000 | > 1000 | CC(C)c1nc(-c2cccc(NS(=O)(=O)c3c(F)cccc3F)c2)c(-c2ccnc(Nc3ccc(N4CCN5CCOC[C@H]5C4)nc3)n2)s1 [Example 15]
4 | 100 to 1000 | < 100 | 100 to 1000 | > 1000 | Nc1nc(-c2cccc(NS(=O)(=O)c3c(F)cccc3F)c2)c(-c2ccnc(Nc3ccc(N4CCOCC4)nc3)n2)s1 [Example 62]
5 | < 100 | < 100 | > 1000 | > 1000 | CC(C)c1nc(-c2cccc(NS(=O)(=O)c3c(F)cccc3F)c2F)c(-c2ccnc(Nc3ccc(N4CCOCC4)nc3)n2)s1 [Example 123]
6 | 100 to 1000 | 100 to 1000 | > 1000 | > 1000 | CC(C)c1nc(-c2cccc(NS(=O)(=O)c3c(F)cccc3F)n2)c(-c2ccnc(Nc3ccc(N4CCOCC4)nc3)n2)s1 [Example 44]
7 | < 100 | < 100 | 100 to 1000 | > 1000 | O=S(=O)(Nc1cccc(-c2nc(N3CCOCC3)sc2-c2ccnc(Nc3ccc(N4CCOCC4)nc3)n2)c1F)c1c(F)cccc1F [Example 122]

Further lines, the compound ahead of its results:

Row | SMILES | IC50 [1] [nM] | IC50 [2] [nM] | IC50 [3] [nM] | IC50 [4] [nM]
8 | COc1cc(N2CCN(CCS(C)(=O)=O)CC2)c(C)cc1Nc1nccc(-c2sc(C(C)(C)C)nc2-c2cccc(NS(=O)(=O)c3c(F)cccc3F)c2)n1 [Example 120] | 100 to 1000 | < 100 | < 100 | > 1000
9 | Cc1cc(N2CCN(CCS(C)(=O)=O)CC2)ncc1Nc1nccc(-c2sc(C(C)C)nc2-c2cccc(NS(=O)(=O)c3c(F)cccc3F)c2)n1 [Example 131] | < 100 | < 100 | 100 to 1000 | > 1000
10 | COCCN1CCN(c2ccc(Nc3nccc(-c4sc(C(C)C)nc4-c4cccc(NS(=O)(=O)c5ccccc5)c4)n3)cn2)CC1 [Example 6, N-[3-(2-(1-Methylethyl)-5-{2-[(6-{4-[2-(methyloxy)ethyl]-1-piperazinyl}-3-pyridinyl)amino]-4-pyrimidinyl}-1,3-thiazol-4-yl)phenyl]benzenesulfonamide] | < 100 | < 100 | 100 to 1000 | > 1000
11 | CC(C)c1nc(-c2cc(F)c(F)c(NS(=O)(=O)c3cccc(F)c3)c2)c(-c2ccnc(Nc3ccc(N4CCN(CCF)CC4)c(F)c3)n2)s1 [Example 101] | 100 to 1000 | 100 to 1000 | 100 to 1000 | > 1000
12 | O=S(=O)(Nc1cc(-c2nc(N3CCCC3)sc2-c2ccnc(Nc3ccc(N4CCOCC4)nc3)n2)ccc1F)c1c(F)cccc1F [Example 26, 2,6-Difluoro-N-{2-fluoro-5-[5-(2-{(6-(4-morpholinyl)-3-pyridinyl]amino}-4-pyrimidinyl)-2-(1-pyrrolidinyl)-1,3-thiazol-4-yl]phenyl}benzenesulfonamide] | > 1000 | 100 to 1000 | 100 to 1000 | > 1000
13 | COc1ccc(S(C)(=O)=O)cc1Nc1nccc(-c2sc(N3CCOCC3)nc2-c2cccc(NS(=O)(=O)c3c(F)cccc3F)c2F)n1 [Example 157] | < 100 | < 100 | > 1000 | > 1000
14 | CC(C)c1nc(-c2ccnc(NS(=O)(=O)c3c(F)cccc3F)c2)c(-c2ccnc(Nc3ccc(N4CCN(CCF)CC4)c(F)c3)n2)s1 [Example 100] | 100 to 1000 | < 100 | > 1000 | > 1000
15 | COc1cc(N2CCC(N3CCN(CCS(C)(=O)=O)CC3)CC2)ccc1Nc1nccc(-c2sc(C(C)C)nc2-c2cccc(NS(=O)(=O)c3c(F)cccc3F)c2)n1 [Example 20, 2,6-Difluoro-N-{3-[2-(1-methylethyl)-5-(2-{[2-(methyloxy)-4-(4-{4-[2-(methylsulfonyl)ethyl]-1-piperazinyl}-1-piperidinyl)phenyl]amino}-4-pyrimidinyl)-1,3-thiazol-4-yl]phenyl}benzenesulfonamide] | > 1000 | 100 to 1000 | < 100 | > 1000
16 | CCOc1ccc(Nc2nccc(-c3sc(N4CCCC4)nc3-c3cccc(NS(=O)(=O)c4c(F)cccc4F)c3)n2)cc1N1CCN(CCS(C)(=O)=O)CC1 [Example 109] | 100 to 1000 | < 100 | < 100 | 100 to 1000
17 | O=S(=O)(Nc1cccc(-c2nc(N3CCCCC3)sc2-c2ccnc(Nc3ccc(N4CCOCC4)nc3)n2)c1)c1c(F)cccc1F [Example 151] | < 100 | < 100 | > 1000 | > 1000
